Experimental findings from patent US12297438B2, “Gene expression elements and systems and use thereof” (GENENEER LTD., priority 2019, dated 2025) are described below.

SMILES strings stand for the structures. Counter-ions that a name gives are not always drawn.

Experiment [1] relates to Arabidopsis thaliana protoplasts transformed with syz24-2.1 plasmid comprising the ECE within the GUS intron. Briefly: GUS reporter expression in Arabidopsis thaliana protoplasts (ECE within GUS intron). In kind it is cell-based. As to the method:
Arabidopsis protoplasts were prepared as previously described (Wu F-H et al. 2009. Plant methods 5:16 doi: 10.1186/1746-4811-5-16). Plasmids syz24-2.1 and a control plasmid 5060 (constitutive GUS expression) were transformed (in the presence or without 10 μM BENZ (BZ-CAS 121749-39-1-BZ) into protoplasts (Wu et al., supra). Transfected protoplasts were washed and cultured in W5 solution with or without BENZ (BZ) in 1% bovine serum albumin-coated 15 ml tubes for 16 h at 28° C. to allow expression of the transfected DNA. The GUS expression system enables detection of a functional β-glucuronidase when protoplasts expressing the gene are incubated with the enzyme substrate 5-bromo-4-chloro-3-indolyl glucuronide (X-Glu), where the product of the reaction is a clear blue color. As described hereinabove, the expression system of the invention was introduced into an intron within the GUS encoding gene. […] The following assays were designed: • 1. Non transformed protoplasts • 2. Non transformed protoplasts exposed to 10 μM BENZ • 3. Non transformed protoplasts exposed to 100 μM BENZ • 4. Protoplast transformed with plasmid syz24-2.1 without exposure to BENZ • 5. Protoplast transformed with plasmid syz24-2.1 exposed to 10 μM BENZ • 6. Protoplast transformed with plasmid syz24-2.1 exposed to 100 μM BENZ • 7. Protoplast transformed with plasmid 5060 without exposure to BENZ • 8. Protoplast transformed with plasmid 5060 exposed to 10 μM BENZ • 9. Protoplast transformed with plasmid 5060 exposed to 100 μM BENZ In all assays in which the transformed protoplasts were exposed to BENZ, the transformation and subsequent washes were performed in the presence of the corresponding BENZ concentration (10 or 100 μM). After the last wash, the protoplasts were suspended in W5 buffer containing 10 μM or 100 μM BENZ and placed at 28° C. for 48 h. Thereafter the protoplasts were collected (by spinning at 100gX3 minutes). Protoplasts were resuspended in 0.5 ml 0.5M monitol+0.5 mg X-glucuronide (sigma B5285) and incubated at 37° C. 24 h.

Experiment [2] has as its system hpt gene with ECE in transgenic tobacco seedlings. Briefly: Conditional expression of hygromycin resistance (hpt) gene with ECE in transgenic tobacco. Type of experiment: in vivo. As to conditions: MS media versus MS+20 μM BENZ, seven days. The text has this: Expression of selection genes is required only during early stages of plant transformation. Following the establishment of a transgenic plant, expression of the selection gene is not required. The hpt gene, conferring resistance to hygromycin, is generated by standard PCR reaction on the pBIGHYG plasmid (binary plasmid) and cloned into pTA vector. The ECE regulatory element is inserted into the hpt gene just after the its ATG start codon by standard Gibson assembly. In addition, the reporting gene GUS: B-glucuronidase is cloned into the pTA vector downstream to the hpt gene under the 35S promoter.
The vector is transferred into Agrobacterium tumefaciens EHAP105.
Tobacco genetic transformation is carried using hygromycin as for selection using a standard transformation protocol. 20 μM BENZ is added to the regeneration and selection medium to facilitate the expression of the selection gene. […] Seeds of heterozygous plants with single insert are selected.
Ten days following planting plants transformed to either MS-based media or remained on MS+20 μM BENZ media. Seven day after, RNA is extracted from transgenic plants. cDNA is synthesized from 20 μg of total RNA using cDNA syntheses kit. Quantitative real-time PCR is conducted on 100 ng of cDNA using the hygromycin-encoding gene primers.

The test system of experiment [3] is SBEIIb with ECE in transgenic rice. Briefly: SBEIIb expression and starch content in transgenic rice carrying ECE-SBEIIb. In kind it is in vivo, rice (Nipponbare). As to conditions: rice grains 10 days post anthesis, activated by BENZ. The text has this: High levels of the starch branching IIb gene in rice (SBEIIb, GQ150904.1) are typically linked to lower amylose content. Downregulating the activity of SBEIIb can lead to rice seeds with higher amylose content. The SBEIIb coding sequence is cloned from Nipponbare cDNA into pTA vector using the standard PCR reaction. The resulted clone is manipulated to carry the ECE regulatory element. The resulted altered fragment is closed into rice-transformation vector containing the wHMWG promoter and NOS terminator. The vector also contains the hygromycin resistance gene under the control of the CaMV 35S promoter. The vector is transferred into Agrobacterium tumefaciens AGL1. […]
RNA is extracted from rice grains, 10 days post anthesis. cDNA is synthesized from 5 μg of total RNA using cDNA syntheses kit. Quantitative real-time PCR is conducted on 100 ng of cDNA using the SBEIIb primers.
Protein analysis is conducted on soluble native proteins extracted from rice grains obtained 10 days post anthesis. […] Signals are recorded by automatic film processor.
Mature panicles are analyzed for their starch content. Fully developed and mature seeds are collected, weighed, dried and ground and total starch is determined using Total Starch HK Assay (Megazyme) and resistant starch is determined using Resistant Starch Assay Kit (Megazyme).

Experiment [4] relates to Nicotiana benthamiana leaf discs transformed with Pzp 1503/syz24-1.2 plasmid (GUS + the mutated ECE). Briefly: GUS reporter expression in tobacco leaf discs (β-glucuronidase assay). Type of experiment: cell-based. The conditions noted are these: MS buffer with 50 μM BENZ. As to the method:
Protocol 5 ml Agrobacterium starter (transfected with the relevant plasmids) were grown with the selection antibiotics at 28° C. with agitation of 350 rpm overnight. Thereafter, the solution was centrifuged for 5 min. at 4500 g. The pellet was resuspended in 10 ml Induction Medium supplemented with the relevant antibiotic and 100 μM Acetosyringone, incubated for 5-6 hours at 28° C., 250 rpm and then centrifuged for 5 min at 4500 g. The bacteria were resuspended in 10 ml Infiltration Medium supplemented with 200 μM Acetosyringone (1M in DMSO). The bacteria density is measured at 660 nm to obtain OD660=1.
Leaf discs were cut from Nicotiana Benthamiana plants and put in 24 wells with 400 μl of the relevant Agrobacterium with or without 50 μM BENZ. Vacuum was applied for 8 min and then slowly released, followed by additional vacuum cycle of 1 min and slow release and incubation for 10 min. The leaf discs were then separated from the Agrobacterium suspension and resuspended with MS buffer with or without 50 μM BENZ and incubated at 24° C. for three days. At the end of the incubation, the leaf discs were subjected to β-glucuronidase (GUS) assay.
β-Glucuronidase (GUS) Assay
• 1. […]

Experiment [5] relates to transgenic poplar trees with ECE in the CCR gene. Briefly: Lignin content in transgenic poplar carrying ECE-CCR. In kind it is in vivo, Populus tremula×Populus alba. As to conditions: transgenic trees upon completion of BENZ treatment cycle. The text has this:
Populus trichocarpa cv. Trichobel CCR cDNA (Accession No. AJ224986) is cloned in to pTA vector using standard PCR reaction. ECE assembled by Gibson in to the middle CCR gene by introducing artificial intron. The resulted sequence is cloned under a tandem repeat of the CaMV 35S constitutive promoter and is transferred into the binary vector pBIG-HYG conferring resistance to hygromycin. Binary vector is transferred into Agrobacterium strain LB4404.
Poplar (Populus tremula×Populus alba) plants are transformed by Agrobacterium as described (Leplé et al. 1992, Plant Cell Rep. 11:137-141.) Transformants are selected by hygromycin resistance. Transformation is confirmed by molecular analysis of the insertions.
Four-to-five-month old greenhouse-grown trees are sprayed daily with 100 μM BENZ during a period of 6 months. […]
RT-PCR analysis of CCR is performed at different stages of the growth and development of the trees. […] Quantification of cDNA molecules is performed in five replicates by qPCR machine.
Lignin content is analyzed in samples from different stages of the growth and development of the trees according to Dence, 1992 (Lignin determination. In: Dence C, Lin S, editors. Methods in Lignin Chemistry. Berlin: Springer-Verlag; 1992. pp. 33-61). […] Lignin is then extracted with CH2Cl2, dried over Na2SO4, evaporated under reduced pressure at 40° C., re-dissolved in 1 mL of CH2Cl2 and analyzed by GC-MS

The test system of experiment [6] is F293 cells transfected with the ECE-CAS9 plasmid. Briefly: CAS activity in F293 cells transfected with ECE-CAS9 plasmid (Bpu10I cut/uncut ratio). Type of experiment: cell-based. As to conditions: DMEM supplemented with 10 μM BENZ, 48 hours. The text has this: In one example, the ECE regulatory element of the present invention can be used to determine the expression level of the CRISPR-CAS9 complex (Gene Bank Accession No. KF264451) allowing timely editing of the genome. The viral (Px330) CRISPER CAS system can be acquired from “addgene” (plasmid #117919). The ECE regulatory element is synthesized with the sequence of the BseRI restriction site to produce an expression system of the invention having SEQ ID NO:51, and then to be inserted into the 117919 plasmid (SEQ ID NO:57). The ECE sequence is located within the artificial hybrid intron, known to increase transcription levels.
Plasmid was transfected in to F293 cells by Lipofectamine 3000 (L3000015 ThermoFisher) according to the manufacturer instructions. Immediately following transfection cells were incubated with either DMEM or DMEM supplemented with BENZ for 48 hours.
The sgRNA is designed to target the cyclin D1 gene (Accession BC023620) at the Bpu 10I restriction site (sgRNA=[…], SEQ ID NO:60). The efficiency of the CRISPER assay is determined by extracting the DNA, digesting it with Bpu10I and measuring, by bioanalyser, the ratio between the cut and uncut fragments, uncut indicates an efficient CAS activity.

Experiment [7] concerns CCR5 expression in ECE included PBMC cells. As to conditions: 50 μM spermin.
Experimental: Plasmid is transfected in to PBMC cells using standard protocol (lipofectamine) and selected for ECE insertion using NGS analyses. Cells are incubated in CTS™ OpTmizer™ (ThermoFisher A3705001) with or without 50 μM spermin. Cells are then stained with CCR5 antibody (BioLegend 359105) and passed through flow cytometry column to detect the level of CCR5 expression.

In the case of `CCNCCCNCCCNCCCNCC` [BENZ, N^1,N^11-Diethylnorspermine tetrahydrochloride], the “β-glucuronidase activity (blue color)” value in experiment [1] (non-transformed protoplasts, 10 μM or 100 μM BENZ) is given as “not observed”; in experiment [1] (protoplasts transformed with control plasmid 5060 (constitutive GUS), 10 μM or 100 μM BENZ), “β-glucuronidase activity irrespective of the presence of BENZ”; in experiment [1] (protoplasts transformed with syz24-2.1, W5 supplemented with 10 μM BENZ), “only when cells were incubated with W5 supplemented with 100 μM BENZ”; in experiment [1] (protoplasts transformed with syz24-2.1, W5 supplemented with 100 μM BENZ), “showed β-glucuronidase activity”; in experiment [4] (leaf discs transformed with Pzp 1503/syz24-1.2, three days), “showed β-glucuronidase activity”; in experiment [4] (leaf discs transformed with control plasmid (constitutive GUS)), “expressed β-glucuronidase activity”. In addition, the “expression of hygromycin-encoding gene (quantitative real-time PCR)” value in experiment [2] is “reduced in the transgenic seedlings when grown on MS media compared to seedling that grow on MS+20 μM BENZ”. In addition, the “SBEIIb protein (Western blot)” value in experiment [3] is “increase in SBEIIb”. In addition, the lignin levels result in experiment [5] was “expected to be comparable to transgenic plants, and lower than wild type plants”. For the same compound, in experiment [6], the “CAS activity (increase of uncut fragments)” value was “increase in CAS activity”.
Turning to `NCCCNCCCCNCCCN` [spermin, spermine], in experiment [7], the CCR5 expression result was “expected to increase”.
